Molecules are shown by their SMILES. The source made the active and inactive calls. The calls are words filed in the database; no cut-off is given here.

The target of assay [1] is T1, Muscarinic acetylcholine receptor M4 (Mus musculus) (UniProt P32211).
T1 sequence (whole entry): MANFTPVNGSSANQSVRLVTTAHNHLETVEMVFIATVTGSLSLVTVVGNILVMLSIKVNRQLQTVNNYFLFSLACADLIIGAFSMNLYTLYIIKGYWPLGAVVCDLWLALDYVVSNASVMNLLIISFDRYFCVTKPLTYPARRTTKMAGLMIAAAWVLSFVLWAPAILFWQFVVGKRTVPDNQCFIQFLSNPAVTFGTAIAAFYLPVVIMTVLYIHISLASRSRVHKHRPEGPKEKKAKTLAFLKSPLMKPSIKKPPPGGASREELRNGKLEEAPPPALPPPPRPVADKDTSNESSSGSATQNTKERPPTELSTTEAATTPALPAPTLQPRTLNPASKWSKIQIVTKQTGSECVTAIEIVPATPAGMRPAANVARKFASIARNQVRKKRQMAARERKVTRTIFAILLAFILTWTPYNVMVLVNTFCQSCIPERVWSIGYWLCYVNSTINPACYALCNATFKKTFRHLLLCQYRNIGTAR
Nature of the assay: Agonist activity at muscarinic M4 receptor in wild type mouse hippocampal CA1 pyramidal neuron assessed as reduction of inhibitory postsynaptic current amplitude at 2 uM by whole-cell electrophysiology relative to control. In kind it is functional, tissue-based. The note with it: Hippocampus.

Assay [2] addresses Muscarinic acetylcholine receptor M3 (Rattus norvegicus) (UniProt P08483). Kind of assay: Allosteric activation of rat recombinant muscarinic M3 receptor expressed in CHO cells assessed as potentiation of acetylcholine-induced calcium mobilization at 10 uM after 1 hr by fluorescence assay. It counts as functional, cell-based.
Assay [3] deals with T2, Muscarinic acetylcholine receptor M4 (Rattus norvegicus) (UniProt P08485).
T2 sequence (whole entry): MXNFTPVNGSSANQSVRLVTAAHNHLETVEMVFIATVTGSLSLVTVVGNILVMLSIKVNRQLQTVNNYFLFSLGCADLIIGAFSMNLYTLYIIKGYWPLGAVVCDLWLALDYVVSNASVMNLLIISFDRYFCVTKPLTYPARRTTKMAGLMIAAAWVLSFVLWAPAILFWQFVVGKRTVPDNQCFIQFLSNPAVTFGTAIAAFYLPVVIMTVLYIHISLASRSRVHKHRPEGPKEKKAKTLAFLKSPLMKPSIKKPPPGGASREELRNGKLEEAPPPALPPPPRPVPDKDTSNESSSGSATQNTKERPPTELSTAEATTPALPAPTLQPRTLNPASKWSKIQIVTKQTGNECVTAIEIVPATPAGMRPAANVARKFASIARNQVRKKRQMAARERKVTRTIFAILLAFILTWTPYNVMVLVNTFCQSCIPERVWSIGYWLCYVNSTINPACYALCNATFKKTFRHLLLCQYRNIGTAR
Kind of assay: Agonist activity at muscarinic M4 receptor in Sprague-Dawley rat hippocampal CA1 pyramidal neuron assessed as increase in carbachol-induced reduction in excitatory postsynaptic current at 10 uM by whole-cell electrophysiology relative to control. It counts as functional, tissue-based. More on the design: scale not given: the % may be the effect or the level left. The note with it: Hippocampus.

Assay [4] concerns the target T2, Muscarinic acetylcholine receptor M4 (Rattus norvegicus). Nature of the assay: Agonist activity at muscarinic M4 receptor in Sprague-Dawley rat hippocampal CA1 pyramidal neuron assessed as reduction of inhibitory postsynaptic current at 0.5 uM by whole-cell electrophysiology relative to control. It counts as functional, tissue-based. The conditions noted are these: Hippocampus.

Assay [5] has the same target. Kind of assay: Allosteric activation of rat recombinant muscarinic M4 receptor expressed in CHO cells assessed as potentiation of acetylcholine-induced increase in [35S]GTPgammaS binding at 10 um after 1 hr by equilibrium binding assay. In kind it is functional, cell-based. Background: GTPγS is a poorly hydrolysed GTP analogue; its binding reports G protein activation.

The target is the same in assay [6]. Nature of the assay: Displacement of [3H]NMS from rat recombinant muscarinic M4 receptor expressed in CHO cells up to 30 uM after 2 hrs by microplate scintillation counting. In kind it is cell-based.
Assay [7] shares this target. Nature of the assay: Allosteric activation of rat recombinant muscarinic M4 receptor expressed in CHO cells assessed as […] in acetylcholine EC50 for induction of calcium mobilization at 10 uM after 1 hr by fluorescence assay. In kind it is functional, cell-based.
Assay [8] shares this target. Nature of the assay: Allosteric activation of rat recombinant muscarinic M4 receptor expressed in CHO cells assessed as fold decrease in acetylcholine Ki for displacement of [3H]NMS from active binding site after 2 hrs by microplate scintillation counting. In kind it is cell-based. Background: In a radioligand displacement assay an active substance lowers the binding of a labelled ligand.

Assay [9] shares this target. Kind of assay: Agonist activity at muscarinic M4 receptor in Sprague-Dawley rat hippocampal CA1 pyramidal neuron assessed as reversible inhibition of excitatory postsynaptic current by whole-cell electrophysiology. In kind it is functional, tissue-based. The note with it: Hippocampus.
Assay [10] shares this target. Kind of assay: Agonist activity at muscarinic M4 receptor in Sprague-Dawley rat hippocampal CA1 pyramidal neuron assessed as reduction of inhibitory postsynaptic current at 5 uM by whole-cell electrophysiology in presence of carbachol relative to control. It counts as functional, tissue-based. The note with it: Hippocampus.
The target in assay [11] is T3, Muscarinic acetylcholine receptor M2 (Rattus norvegicus) (UniProt P10980).
T3 sequence (whole entry): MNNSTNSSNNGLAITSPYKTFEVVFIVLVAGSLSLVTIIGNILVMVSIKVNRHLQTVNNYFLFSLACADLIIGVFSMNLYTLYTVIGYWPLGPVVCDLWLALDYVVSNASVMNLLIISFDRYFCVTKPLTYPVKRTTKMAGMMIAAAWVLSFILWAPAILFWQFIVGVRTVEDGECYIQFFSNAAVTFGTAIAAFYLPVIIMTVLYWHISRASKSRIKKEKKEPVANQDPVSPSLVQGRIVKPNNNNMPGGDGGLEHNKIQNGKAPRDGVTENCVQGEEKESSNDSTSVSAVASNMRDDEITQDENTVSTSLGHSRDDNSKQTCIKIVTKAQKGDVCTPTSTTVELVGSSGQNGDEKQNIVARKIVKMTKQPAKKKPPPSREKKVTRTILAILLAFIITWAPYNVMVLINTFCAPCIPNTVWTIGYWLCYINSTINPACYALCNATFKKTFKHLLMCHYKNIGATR
Kind of assay: Allosteric activation of rat recombinant muscarinic M2 receptor expressed in CHO cells assessed as potentiation of acetylcholine-induced calcium mobilization at 10 uM after 1 hr by fluorescence assay. It counts as functional, cell-based. (Calcium assays in cells follow changes in intracellular calcium, usually with a dye or a luminescent sensor.)

In assay [12] the target is T2, Muscarinic acetylcholine receptor M4 (Rattus norvegicus). Kind of assay: Agonist activity at muscarinic M4 receptor in Sprague-Dawley rat hippocampal CA1 pyramidal neuron assessed as reduction of excitatory postsynaptic current at 1 uM by whole-cell electrophysiology relative to control. In kind it is functional, tissue-based. Also noted: scale not given: the % may be the effect or the level left. The conditions noted are these: Hippocampus.

The target in assay [13] is Muscarinic acetylcholine receptor M3 (Rattus norvegicus) (UniProt P08483). Nature of the assay: Displacement of [3H]NMS from rat recombinant muscarinic M3 receptor expressed in CHO cells after 2 hrs by microplate scintillation counting. In kind it is cell-based.
Chain of Muscarinic acetylcholine receptor M3 (Rattus norvegicus) (P08483 whole entry, looked up): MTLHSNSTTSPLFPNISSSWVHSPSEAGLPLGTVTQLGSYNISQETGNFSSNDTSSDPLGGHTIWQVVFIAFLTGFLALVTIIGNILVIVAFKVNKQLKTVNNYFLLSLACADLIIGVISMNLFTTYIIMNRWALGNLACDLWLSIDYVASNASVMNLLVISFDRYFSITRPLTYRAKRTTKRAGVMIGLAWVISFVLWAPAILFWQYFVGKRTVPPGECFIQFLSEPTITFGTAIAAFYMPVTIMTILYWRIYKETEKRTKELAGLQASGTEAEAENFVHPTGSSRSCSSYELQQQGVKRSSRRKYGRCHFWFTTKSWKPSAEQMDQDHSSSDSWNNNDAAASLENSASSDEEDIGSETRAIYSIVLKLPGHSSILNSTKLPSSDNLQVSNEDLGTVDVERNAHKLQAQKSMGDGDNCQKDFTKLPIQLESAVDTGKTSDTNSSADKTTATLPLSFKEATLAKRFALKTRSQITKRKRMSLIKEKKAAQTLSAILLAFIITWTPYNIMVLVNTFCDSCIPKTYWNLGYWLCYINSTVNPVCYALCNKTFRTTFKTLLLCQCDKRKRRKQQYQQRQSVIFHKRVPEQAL

The inhibition is the share of the control response that was lost under treatment. For `Cc1cc(C)c2c(N)c(C(=O)NCc3ccc(Cl)cc3)sc2n1`, the inhibition in [1] was 56%; in assay [4], 62.2%; in assay [10], 61.7%. Moreover, the result in [2], in assay [6], in [11] and in [13] was inactive. In addition, the Activity in assay [3] is 42.7%; in assay [5], 43%; in [8], “Dose-dependent effect”; in assay [9], “Dose-dependent effect”; in assay [12], 60.5%. In addition, the fold change (FC) in assay [7] was 47.

The record behind these values is ChEMBL document CHEMBL1212695, “An allosteric potentiator of M4 mAChR modulates hippocampal synaptic transmission” (Nat Chem Biol, 2008).
